According to patent US9580431B2, “Inhibitors of human immunodeficiency virus replication” (priority 2013, dated 2017):
Read-outs that look alike come from different tables or passages of the source.

System: recombinant NL-Rluc virus
Test: microbe, parasite or virus in culture
Type: cell-based, HIV
Conditions: NL-RLuc virus infecting MT-2 cells, 5 days of incubation, luciferase readout, at least 2 experiments, serum condition not given, read-out: EC50
[1] = Human immunodeficiency virus 1, MT2, 120 h

Work on Cc1nc2cc(N3CC(Cc4ccccc4)OC3=O)nn2c(N2CCC(C)(C)CC2)c1[C@H](OC(C)(C)C)C(=O)O (stereo partly drawn) [Example 30, (2S)-2-(2-(5-Benzyl-2-oxooxazolidin-3-yl)-7-(4,4-dimethylpiperidin-1-yl)-5-methylpyrazolo[1,5-a]pyrimidin-6-yl)-2-(tert-butoxy)acetic acid] yielded an EC50 of 0.016 µM.
Molecule Cc1nc2cc(-c3ncc(Cc4ccc(F)cc4)o3)nn2c(-c2cc(F)c3c(c2C)CCCO3)c1[C@H](OC(C)(C)C)C(=O)O [Example 6, (2S)-2-(tert-Butoxy)-2-(7-(8-fluoro-5-methylchroman-6-yl)-2-(5-(4-fluorobenzyl)oxazol-2-yl)-5-methylpyrazolo[1,5-a]pyrimidin-6-yl)acetic acid] has an EC50 [1] of 0.006 µM.
In the case of Cc1nc2cc(-c3ncc(Cc4ccc(F)cc4)s3)nn2c(N2CCC(C)(C3CC3)CC2)c1[C@H](OC(C)(C)C)C(=O)O [Example 24, (S)-2-(tert-Butoxy)-2-(7-(4-cyclopropyl-4-methylpiperidin-1-yl)-2-(5-(4-fluorobenzyl)thiazol-2-yl)-5-methylpyrazolo[1,5-a]pyrimidin-6-yl)acetic acid], the EC50 [1] is reported as 0.026 µM.
Cc1nc2cc(-c3ncc(CCc4ccc(F)cc4)s3)nn2c(N2CCC(C)(C)CC2)c1[C@H](OC(C)(C)C)C(=O)O [Example 16, (S)-2-(tert-Butoxy)-2-(7-(4,4-dimethylpiperidin-1-yl)-2-(5-(4-fluorophenethyl)thiazol-2-yl)-5-methylpyrazolo[1,5-a]pyrimidin-6-yl)acetic acid] showed an EC50 [1] of 0.038 µM.
In the case of Cc1nc2cc(-c3ncc(Cc4ccc(F)cc4)s3)nn2c(-c2cc(F)c3c(c2C)CCCO3)c1[C@H](OC(C)(C)C)C(=O)O [Example 5, (2S)-2-(tert-Butoxy)-2-(7-(8-fluoro-5-methylchroman-6-yl)-2-(5-(4-fluorobenzyl)thiazol-2-yl)-5-methylpyrazolo[1,5-a]pyrimidin-6-yl)acetic acid], the EC50 [1] is reported as 0.003 µM.
Work on CC1=CCN(c2c([C@H](OC(C)(C)C)C(=O)O)c(C)nc3cc(-c4ncc(Cc5ccc(F)cc5)s4)nn23)CC1 [Example 19, (S)-2-(tert-Butoxy)-2-(2-(5-(4-fluorobenzyl)thiazol-2-yl)-5-methyl-7-(4-methyl-5,6-dihydropyridin-1(2H)-yl)pyrazolo[1,5-a]pyrimidin-6-yl)acetic acid] yielded an EC50 [1] of 0.105 µM.
In the case of Cc1nc2cc(-c3nc4cc(Cl)ccc4[nH]3)nn2c(-c2cc(F)c3c(c2C)CCCO3)c1[C@H](OC(C)(C)C)C(=O)O [Example 1, (2S)-2-(tert-Butoxy)-2-(2-(5-chloro-1H-benzo[d]imidazol-2-yl)-7-(8-fluoro-5-methylchroman-6-yl)-5-methylpyrazolo[1,5-a]pyrimidin-6-yl)acetic acid], the EC50 [1] is reported as 0.047 µM.
With C=CCOC1(C)CCN(c2c([C@H](OC(C)(C)C)C(=O)O)c(C)nc3cc(-c4cnn(Cc5ccccc5)c4)nn23)CC1 [Example 40, (S)-2-(7-(4-(Allyloxy)-4-methylpiperidin-1-yl)-2-(1-benzyl-1H-pyrazol-4-yl)-5-methylpyrazolo[1,5-a]pyrimidin-6-yl)-2-(tert-butoxy)acetic acid] the EC50 [1] was 0.011 µM.
Cc1nc2cc(-c3nc(Cc4ccc(F)cc4)no3)nn2c(-c2cc(F)c3c(c2C)CCCO3)c1[C@H](OC(C)(C)C)C(=O)O [Example 7, (2S)-2-(tert-Butoxy)-2-(7-(8-fluoro-5-methylchroman-6-yl)-2-(3-(4-fluorobenzyl)-1,2,4-oxadiazol-5-yl)-5-methylpyrazolo[1,5-a]pyrimidin-6-yl)acetic acid] showed an EC50 [1] of 0.028 µM.
Work on Cc1nc2cc(-c3ncc(-c4ccc(F)cc4)s3)nn2c(-c2cc(F)c3c(c2C)CCCO3)c1[C@H](OC(C)(C)C)C(=O)O [Example 8, (2S)-2-(tert-Butoxy)-2-(7-(8-fluoro-5-methylchroman-6-yl)-2-(5-(4-fluorophenyl)thiazol-2-yl)-5-methylpyrazolo[1,5-a]pyrimidin-6-yl)acetic acid] yielded an EC50 [1] of 0.011 µM.
Cc1nc2cc(-c3nc4ccc(Cl)cc4n3C)nn2c(-c2cc(F)c3c(c2C)CCCO3)c1[C@H](OC(C)(C)C)C(=O)O [Example 3, (2S)-2-(tert-Butoxy)-2-(2-(6-chloro-1-methyl-1H-benzo[d]imidazol-2-yl)-7-(8-fluoro-5-methylchroman-6-yl)-5-methylpyrazolo[1,5-a]pyrimidin-6-yl)acetic acid] was tested, and the EC50 [1] was 0.1 µM.
Work on Cc1nc2cc(-c3ncc(Cc4ccc(F)cc4)s3)nn2c(N2CCC(C)(CO)CC2)c1[C@H](OC(C)(C)C)C(=O)O [Example 21, (S)-2-(tert-Butoxy)-2-(2-(5-(4-fluorobenzyl)thiazol-2-yl)-7-(4-(hydroxymethyl)-4-methylpiperidin-1-yl)-5-methylpyrazolo[1,5-a]pyrimidin-6-yl)acetic acid] yielded an EC50 [1] of 0.075 µM.
For Cc1nc2cc(-c3cnn(Cc4ccccc4)c3)nn2c(N2CCC(C)(C)CC2)c1[C@H](OC(C)(C)C)C(=O)O [Example 39, (S)-2-(2-(1-Benzyl-1H-pyrazol-4-yl)-7-(4,4-dimethylpiperidin-1-yl)-5-methylpyrazolo[1,5-a]pyrimidin-6-yl)-2-(tert-butoxy)acetic acid], the EC50 [1] was 0.007 µM.
Work on Cc1nc2cc(-n3nccc3Cc3ccccc3)nn2c(N2CCC(C)(C)CC2)c1[C@H](OC(C)(C)C)C(=O)O [Example 35, (S)-2-(2-(5 Benzyl-1H-pyrazol-1-yl)-7-(4,4-dimethylpiperidin-1-yl)-5-methylpyrazolo[1,5-a]pyrimidin-6-yl)-2-(tert-butoxy)acetic acid] yielded an EC50 [1] of 0.573 µM.
For Cc1nc2cc(N3CCC(Oc4ccccc4)C3=O)nn2c(N2CCC(C)(C)CC2)c1[C@H](OC(C)(C)C)C(=O)O (stereo partly drawn) [Example 31, (2S)-2-(tert-Butoxy)-2-(7-(4,4-dimethylpiperidin-1 yl)-5-methyl-2-(2-oxo-3-phenoxypyrrolidin-1-yl)pyrazolo[1,5-a]pyrimidin-6-yl)acetic acid], the EC50 was 0.813 µM.
